The values below come from US20190016697A1, “CONFIGURATIONAL STEREOISOMER OF DIFETHIALONE, COMPOSITION AND RODENTICIDE BAIT COMPRISING SAME, AND METHOD FOR CONTROLLING TARGET RODENT PESTS” (priority 2015, published 2019).

The format of the series is in vivo, Rattus norvegicus. As to conditions: about 3.4 mg difethialone per kg per os (homo/hetero 4/6, each racemic), mean of six male and female rats, daily vitamin K1. The procedure:
C. Extraction of Difethialone from the Liver of Rats Treated with Difethialone for the Purpose of Analysis of the Various Enantiomers of Difethialone
About 0.525 g (±0.025 g) of rat liver is weighed out accurately and placed in a 50 mL polypropylene tube. 10 mL of acetone are added and the suspension is homogenized using an Ultra-Turrax® homogenizer/disperser for a time of about 30 seconds. The homogenizer/disperser shaft is rinsed with hot water and then twice with 20 mL of acetone in a polypropylene tube. The homogenate is centrifuged for 5 minutes at a centrifugation speed of 3000 rpm (revolutions per minute). The supernatant is collected and transferred into a test tube. The sample is subjected to evaporation under a stream of nitrogen (N2) at a temperature of 40° C. so as to form a dry extract.
1 mL of acetonitrile is added to the tube containing the dry extract so as to dissolve it. The acetonitrile solution is washed twice successively with 1 mL of hexane. The lipid-free extract is dried under a stream of nitrogen (N2) at a temperature of 40° C. and is then taken up in 0.5 mL of methanol and dissolved by vortex stirring. 0.5 mL of ultra-pure (Milli-Q) water is then added. The sample is vortex-homogenized.
1 mL of dichloromethane (CH2Cl2), then 1 mL of methanol (CH3OH), then 1 mL of ultra-pure (Milli-Q) water are passed through an Oasis HLB 1 cc cartridge (WAT094225, Waters). The lipid-free liver extract (1 mL MeOH/Milli-Q H2O) containing difethialone is then loaded onto the top of the preconditioned cartridge. The liver extract penetrates through the cartridge by gravity on contact with the solid phase of the cartridge. 1 mL of washing solution formed from methanol (CH3OH) and ultra-pure water (H2O) in a 90/10 volume proportion is loaded onto the top of the cartridge. The cartridge is dried by suction under vacuum connected to the bottom of the cartridge. 1 mL of eluting solution formed from dichloromethane (CH2Cl2) and methanol (CH3OH) in a 90/10 volume proportion is then loaded onto the top of the cartridge and an eluate comprising difethialone is collected at the bottom of the cartridge. The solvent of the eluate is evaporated off under a stream of nitrogen (N2) at a temperature of 40° C. The sample is taken up in 0.5 mL of acetonitrile (NC-CH3) and the acetonitrile solution containing difethialone is filtered through a 0.2 μm filter.
The acetonitrile solution containing difethialone is analysed by high-pressure liquid chromatography on a LUX® Cellulose-3 chiral column (150×2 mm, particle size of 3 μm) (Phenomenex, Le Pecq, France) as described in point A2) above. The retention time value (t1) of the laevorotatory enantiomer of said homo-stereoisomer of difethialone according to the invention is between 7.8 minutes and 8.4 minutes (the maximum value of the peak corresponding to the […] enantiomer of said homo-stereoisomer being about 8.1 minutes, as described in FIG. 1), depending on the operating conditions, especially depending on the column temperature conditions. The retention time value (t4) of the dextrorotatory enantiomer of said homo-stereoisomer is between 13.3 minutes and 15.1 minutes (the maximum value of the peak corresponding to the […] enantiomer of said homo-stereoisomer being about 14.4 minutes), depending on the operating conditions, especially depending on the column temperature conditions. The retention time value (t3) of the dextrorotatory enantiomer of said hetero-stereoisomer of difethialone is between 11.2 minutes and 12.3 minutes (the maximum value of the peak corresponding to the dextrorotatory enantiomer of said hetero-stereoisomer being about 11.7 minutes), depending on the operating conditions, especially depending on the column temperature conditions. […]

Read-outs that look alike come from different tables or passages of the source.

In the case of `O=c1sc2ccccc2c(O)c1C1CC(c2ccc(-c3ccc(Br)cc3)cc2)Cc2ccccc21` (centres unmarked) [DFN-Hetero-dextro], the Hepatic content is, setting by setting: (4 hours after tube-feeding) 10589.5 ng/g; (9 hours after tube-feeding) 12155.5 ng/g; (24 hours after tube-feeding) 8102 ng/g; (48 hours after tube-feeding) 7974.5 ng/g; (120 hours after tube-feeding) 5431.5 ng/g; (168 hours after tube-feeding) 3011 ng/g. Under “216 hours after tube-feeding”, this compound returned a Hepatic content of 4030.5 ng/g.

In the case of `O=c1sc2ccccc2c(O)c1C1CC(c2ccc(-c3ccc(Br)cc3)cc2)Cc2ccccc21` (centres unmarked) [DFN-Hetero-laevo], the Hepatic content by setting is: (4 hours after tube-feeding) 5380.5 ng/g; (9 hours after tube-feeding) 5869.5 ng/g; (24 hours after tube-feeding) 3613.5 ng/g; (48 hours after tube-feeding) 2804 ng/g; (120 hours after tube-feeding) 1211 ng/g; (168 hours after tube-feeding) 392.5 ng/g. This compound had a Hepatic content (216 hours after tube-feeding) of 545 ng/g.
